The nature of this data set: Dissolution percentage as a function of time, UV spectrophotometry. In kind it is physicochemical. The settings on record: API as received. The procedure:
The dissolution percentage as a function of time was measured by respectively dissolving the as received CBZ and the coated MCC carrier particles in methanol (although other dissolution media could be used). UV spectrophotometry was used to measure the concentration of the CBZ dissolved in the methanol.

This passage reports dissolution percentage results from patent US12357574B2, “Particle coating method” (University of Limerick, priority 2020, dated 2025).

The structures appear in SMILES notation.

In the case of `Cc1nc2n(c(=O)c1CCN1CCC(c3noc4cc(F)ccc34)CC1)CCCC2` [Risperidone, risperidone], the dissolution percentage entry (after approximately 60 minutes) is listed as “less than 40%”.

Regarding `NC(=O)N1c2ccccc2C=Cc2ccccc21` [Carbamazepine, carbamazepine], the dissolution percentage entry is, setting by setting: (after approximately 50 minutes, methanol) “approximately 80%”; (within 10 minutes, methanol) “less than 40%”.
